16 molecules from the NIST ThermoML archive (doi:10.1016/j.jct.2008.12.005) can be followed below.

Numbers after ± are expanded uncertainties.

A short description of one series: activity coefficient (dimensionless); of the first substance listed, at infinite dilution; xn = mol fraction of the nth substance listed. The note with it: 338.15 K; 101 kPa; Liquid; Chromatography; x1 = 0.
For the molecule `C1CCOC1` [tetrahydrofuran] + CC[S+](CC)CC.O=S(=O)([N-]S(=O)(=O)C(F)(F)F)C(F)(F)F, the activity coefficient came to 0.846 ± 0.054.
The same measure, in the same setting: with `CCc1ccccc1` [ethylbenzene] + CC[S+](CC)CC.O=S(=O)([N-]S(=O)(=O)C(F)(F)F)C(F)(F)F the figure was 2.44 ± 0.17.
Consider `C1CCCC1` [cyclopentane] + CC[S+](CC)CC.O=S(=O)([N-]S(=O)(=O)C(F)(F)F)C(F)(F)F, for which the activity coefficient was 8.17 ± 0.56.
On to `C#CCCCCC` [1-heptyne] + CC[S+](CC)CC.O=S(=O)([N-]S(=O)(=O)C(F)(F)F)C(F)(F)F, for which the activity coefficient was determined as 5.08 ± 0.35.
For the molecule `CCO` [ethanol] + CC[S+](CC)CC.O=S(=O)([N-]S(=O)(=O)C(F)(F)F)C(F)(F)F, the activity coefficient worked out at 1.48 ± 0.1.
Still for that read-out and setting: with `CO` [methanol] + CC[S+](CC)CC.O=S(=O)([N-]S(=O)(=O)C(F)(F)F)C(F)(F)F the figure was 1.15 ± 0.07; with `C#CCCC` [1-pentyne] + CC[S+](CC)CC.O=S(=O)([N-]S(=O)(=O)C(F)(F)F)C(F)(F)F, 2.54 ± 0.17.
On the same count and under the same terms, with `C1CCCCCCC1` [cyclooctane] + CC[S+](CC)CC.O=S(=O)([N-]S(=O)(=O)C(F)(F)F)C(F)(F)F the figure was 20.4 ± 1.4; with `C#CCCCC` [1-hexyne] + CC[S+](CC)CC.O=S(=O)([N-]S(=O)(=O)C(F)(F)F)C(F)(F)F, 3.57 ± 0.24.
On to `CCCCCCC` [heptane] + CC[S+](CC)CC.O=S(=O)([N-]S(=O)(=O)C(F)(F)F)C(F)(F)F, for which the activity coefficient was found to be 28.1 ± 1.9.
Regarding `CCCCCCCCC` [nonane] + CC[S+](CC)CC.O=S(=O)([N-]S(=O)(=O)C(F)(F)F)C(F)(F)F, the activity coefficient stood at 55.5 ± 3.8.
The same measure, in the same setting: with `CCCO` [propan-1-ol] + CC[S+](CC)CC.O=S(=O)([N-]S(=O)(=O)C(F)(F)F)C(F)(F)F the figure was 1.85 ± 0.12; with `CCCCCC` [hexane] + CC[S+](CC)CC.O=S(=O)([N-]S(=O)(=O)C(F)(F)F)C(F)(F)F, 20.7 ± 1.4; with `C=CCCCC` [hex-1-ene] + CC[S+](CC)CC.O=S(=O)([N-]S(=O)(=O)C(F)(F)F)C(F)(F)F, 10.1 ± 0.7.
`Cc1ccc(C)cc1` [1,4-dimethylbenzene] + CC[S+](CC)CC.O=S(=O)([N-]S(=O)(=O)C(F)(F)F)C(F)(F)F: the activity coefficient is 2.34 ± 0.16.

Staying with this series, now noted: 348.15 K; 101 kPa; Liquid; Chromatography; x1 = 0.
On to `c1ccsc1` [thiophene] + CC[S+](CC)CC.O=S(=O)([N-]S(=O)(=O)C(F)(F)F)C(F)(F)F, for which the activity coefficient came to 0.965 ± 0.061.
As for `C1CCOC1` [tetrahydrofuran] + CC[S+](CC)CC.O=S(=O)([N-]S(=O)(=O)C(F)(F)F)C(F)(F)F, the activity coefficient amounted to 0.859 ± 0.055.
Same read-out and setting: with `CCc1ccccc1` [ethylbenzene] + CC[S+](CC)CC.O=S(=O)([N-]S(=O)(=O)C(F)(F)F)C(F)(F)F the figure was 2.45 ± 0.17; with `C1CCCC1` [cyclopentane] + CC[S+](CC)CC.O=S(=O)([N-]S(=O)(=O)C(F)(F)F)C(F)(F)F, 7.7 ± 0.53.
The same measure, in the same setting: with `C#CCCCCC` [1-heptyne] + CC[S+](CC)CC.O=S(=O)([N-]S(=O)(=O)C(F)(F)F)C(F)(F)F the figure was 5.04 ± 0.34.
The same measure, in the same setting: with `CCO` [ethanol] + CC[S+](CC)CC.O=S(=O)([N-]S(=O)(=O)C(F)(F)F)C(F)(F)F the figure was 1.36 ± 0.09.
For the molecule `CO` [methanol] + CC[S+](CC)CC.O=S(=O)([N-]S(=O)(=O)C(F)(F)F)C(F)(F)F, the activity coefficient was 1.07 ± 0.07.
On to `C#CCCC` [1-pentyne] + CC[S+](CC)CC.O=S(=O)([N-]S(=O)(=O)C(F)(F)F)C(F)(F)F, for which the activity coefficient came out at 2.55 ± 0.17.
For `C1CCCCCCC1` [cyclooctane] + CC[S+](CC)CC.O=S(=O)([N-]S(=O)(=O)C(F)(F)F)C(F)(F)F, the activity coefficient worked out at 18.7 ± 1.3.
Same read-out and setting: with `C#CCCCC` [1-hexyne] + CC[S+](CC)CC.O=S(=O)([N-]S(=O)(=O)C(F)(F)F)C(F)(F)F the figure was 3.56 ± 0.24; with `CCCCCCC` [heptane] + CC[S+](CC)CC.O=S(=O)([N-]S(=O)(=O)C(F)(F)F)C(F)(F)F, 26 ± 1.8.
Same read-out and setting: with `CCCCCCCCC` [nonane] + CC[S+](CC)CC.O=S(=O)([N-]S(=O)(=O)C(F)(F)F)C(F)(F)F the figure was 50.5 ± 3.5; with `CCCO` [propan-1-ol] + CC[S+](CC)CC.O=S(=O)([N-]S(=O)(=O)C(F)(F)F)C(F)(F)F, 1.7 ± 0.11; with `CCCCCC` [hexane] + CC[S+](CC)CC.O=S(=O)([N-]S(=O)(=O)C(F)(F)F)C(F)(F)F, 19.2 ± 1.3.
The same measure, in the same setting: with `C=CCCCC` [hex-1-ene] + CC[S+](CC)CC.O=S(=O)([N-]S(=O)(=O)C(F)(F)F)C(F)(F)F the figure was 9.69 ± 0.66.
Regarding `Cc1ccc(C)cc1` [1,4-dimethylbenzene] + CC[S+](CC)CC.O=S(=O)([N-]S(=O)(=O)C(F)(F)F)C(F)(F)F, the activity coefficient was 2.36 ± 0.16.

The series is the same for the next values; noted with them: 358.15 K; 101 kPa; Liquid; Chromatography; x1 = 0.
As to `c1ccsc1` [thiophene] + CC[S+](CC)CC.O=S(=O)([N-]S(=O)(=O)C(F)(F)F)C(F)(F)F, the activity coefficient came out at 0.971 ± 0.061.
With `C1CCOC1` [tetrahydrofuran] + CC[S+](CC)CC.O=S(=O)([N-]S(=O)(=O)C(F)(F)F)C(F)(F)F, the activity coefficient came out at 0.872 ± 0.056.
`CCc1ccccc1` [ethylbenzene] + CC[S+](CC)CC.O=S(=O)([N-]S(=O)(=O)C(F)(F)F)C(F)(F)F: the activity coefficient stood at 2.45 ± 0.17.
On the same count and under the same terms, with `C1CCCC1` [cyclopentane] + CC[S+](CC)CC.O=S(=O)([N-]S(=O)(=O)C(F)(F)F)C(F)(F)F the figure was 7.29 ± 0.5.
Turning to `C#CCCCCC` [1-heptyne] + CC[S+](CC)CC.O=S(=O)([N-]S(=O)(=O)C(F)(F)F)C(F)(F)F, the activity coefficient worked out at 4.98 ± 0.34.
`CCO` [ethanol] + CC[S+](CC)CC.O=S(=O)([N-]S(=O)(=O)C(F)(F)F)C(F)(F)F: the activity coefficient was 1.27 ± 0.08.
On to `CO` [methanol] + CC[S+](CC)CC.O=S(=O)([N-]S(=O)(=O)C(F)(F)F)C(F)(F)F, for which the activity coefficient was determined as 1 ± 0.06.
On the same count and under the same terms, with `C#CCCC` [1-pentyne] + CC[S+](CC)CC.O=S(=O)([N-]S(=O)(=O)C(F)(F)F)C(F)(F)F the figure was 2.55 ± 0.17; with `C1CCCCCCC1` [cyclooctane] + CC[S+](CC)CC.O=S(=O)([N-]S(=O)(=O)C(F)(F)F)C(F)(F)F, 17.2 ± 1.2; with `C#CCCCC` [1-hexyne] + CC[S+](CC)CC.O=S(=O)([N-]S(=O)(=O)C(F)(F)F)C(F)(F)F, 3.54 ± 0.24.
The same measure, in the same setting: with `CCCCCCC` [heptane] + CC[S+](CC)CC.O=S(=O)([N-]S(=O)(=O)C(F)(F)F)C(F)(F)F the figure was 24.1 ± 1.6.
For `CCCCCCCCC` [nonane] + CC[S+](CC)CC.O=S(=O)([N-]S(=O)(=O)C(F)(F)F)C(F)(F)F, the activity coefficient is 46 ± 3.1.
For `CCCO` [propan-1-ol] + CC[S+](CC)CC.O=S(=O)([N-]S(=O)(=O)C(F)(F)F)C(F)(F)F, the activity coefficient turned out to be 1.57 ± 0.1.
Regarding `CCCCCC` [hexane] + CC[S+](CC)CC.O=S(=O)([N-]S(=O)(=O)C(F)(F)F)C(F)(F)F, the activity coefficient stood at 18 ± 1.2.
On the same count and under the same terms, with `C=CCCCC` [hex-1-ene] + CC[S+](CC)CC.O=S(=O)([N-]S(=O)(=O)C(F)(F)F)C(F)(F)F the figure was 9.3 ± 0.63; with `Cc1ccc(C)cc1` [1,4-dimethylbenzene] + CC[S+](CC)CC.O=S(=O)([N-]S(=O)(=O)C(F)(F)F)C(F)(F)F, 2.38 ± 0.16.

Still in this series, the particulars now being: 368.15 K; 101 kPa; Liquid; Chromatography; x1 = 0.
Consider `c1ccsc1` [thiophene] + CC[S+](CC)CC.O=S(=O)([N-]S(=O)(=O)C(F)(F)F)C(F)(F)F, for which the activity coefficient turned out to be 0.977 ± 0.061.
Take `C1CCOC1` [tetrahydrofuran] + CC[S+](CC)CC.O=S(=O)([N-]S(=O)(=O)C(F)(F)F)C(F)(F)F: the activity coefficient turned out to be 0.885 ± 0.056.
The same measure, in the same setting: with `CCc1ccccc1` [ethylbenzene] + CC[S+](CC)CC.O=S(=O)([N-]S(=O)(=O)C(F)(F)F)C(F)(F)F the figure was 2.45 ± 0.17; with `C1CCCC1` [cyclopentane] + CC[S+](CC)CC.O=S(=O)([N-]S(=O)(=O)C(F)(F)F)C(F)(F)F, 6.94 ± 0.47; with `C#CCCCCC` [1-heptyne] + CC[S+](CC)CC.O=S(=O)([N-]S(=O)(=O)C(F)(F)F)C(F)(F)F, 4.93 ± 0.34.
On to `CCO` [ethanol] + CC[S+](CC)CC.O=S(=O)([N-]S(=O)(=O)C(F)(F)F)C(F)(F)F, for which the activity coefficient came out at 1.18 ± 0.08.
With `CO` [methanol] + CC[S+](CC)CC.O=S(=O)([N-]S(=O)(=O)C(F)(F)F)C(F)(F)F, the activity coefficient stood at 0.935 ± 0.059.
Regarding `C#CCCC` [1-pentyne] + CC[S+](CC)CC.O=S(=O)([N-]S(=O)(=O)C(F)(F)F)C(F)(F)F, the activity coefficient was 2.55 ± 0.17.
For `C1CCCCCCC1` [cyclooctane] + CC[S+](CC)CC.O=S(=O)([N-]S(=O)(=O)C(F)(F)F)C(F)(F)F, the activity coefficient was found to be 16 ± 1.1.
With `C#CCCCC` [1-hexyne] + CC[S+](CC)CC.O=S(=O)([N-]S(=O)(=O)C(F)(F)F)C(F)(F)F, the activity coefficient turned out to be 3.53 ± 0.24.
The same measure, in the same setting: with `CCCCCCC` [heptane] + CC[S+](CC)CC.O=S(=O)([N-]S(=O)(=O)C(F)(F)F)C(F)(F)F the figure was 22.5 ± 1.5; with `CCCCCCCCC` [nonane] + CC[S+](CC)CC.O=S(=O)([N-]S(=O)(=O)C(F)(F)F)C(F)(F)F, 42.4 ± 2.9.
Same read-out and setting: with `CCCO` [propan-1-ol] + CC[S+](CC)CC.O=S(=O)([N-]S(=O)(=O)C(F)(F)F)C(F)(F)F the figure was 1.46 ± 0.1.
Take `CCCCCC` [hexane] + CC[S+](CC)CC.O=S(=O)([N-]S(=O)(=O)C(F)(F)F)C(F)(F)F: the activity coefficient was 16.9 ± 1.2.
With `C=CCCCC` [hex-1-ene] + CC[S+](CC)CC.O=S(=O)([N-]S(=O)(=O)C(F)(F)F)C(F)(F)F, the activity coefficient is 8.94 ± 0.61.
Same read-out and setting: with `Cc1ccc(C)cc1` [1,4-dimethylbenzene] + CC[S+](CC)CC.O=S(=O)([N-]S(=O)(=O)C(F)(F)F)C(F)(F)F the figure was 2.4 ± 0.16.
